Earlier results, collected in patent US20050090518A1 (Nastech Pharmaceutical Company Inc., priority 2003, published 2005).

Details: intranasal administration

CN1CCc2cccc3c2[C@H]1Cc1ccc(O)c(O)c1-3 [Apomorphine]
abolition of "off state" events: 95% | duration of efficacy: less than one | onset of action: 10 min
